Experimental data published in PubChem BioAssay AID1963832 (Molecular Pharmacology Branch, DTP, NCI, 2024).

System: 885724-159-R-J1-PDC complex spheroid viability
Experiment: Anticancer human tumor 885724-159-R-J1-PDC patient-derived pancreatic adenocarcinoma cell line growth inhibition [POLQ]
Conditions: for IC50: curve of first compound; for viability, T/C: stronger effect = lower value
Method in brief: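 Complex spheroid viability model combining PDC tumour cells with endothelial (HUVEC) and MSC stromal cells. Novobiocin, ART-558 or RP6685 were tested singly and in combination with standard and investigational anticancer drugs. Each was titrated in half-log steps from near clinical Cmax, or from 10 microM where Cmax was unknown.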

[1] = second compound 0.0316 µM, first compound 0.0316 µM
[2] = second compound 0.0316 µM, first compound 0.1 µM
[3] = second compound 0.0316 µM, first compound 0.316 µM
[4] = second compound 0.0316 µM, first compound 1 µM
[5] = second compound 0.0316 µM, first compound 3.16 µM
[6] = second compound 0.0316 µM, first compound 10 µM
[7] = second compound 0.1 µM, first compound 0.0316 µM
[8] = second compound 0.1 µM, first compound 0.1 µM
[9] = second compound 0.1 µM, first compound 0.316 µM
[10] = second compound 0.1 µM, first compound 1 µM
[11] = second compound 0.1 µM, first compound 3.16 µM
[12] = second compound 0.1 µM, first compound 10 µM
[13] = second compound 0.316 µM, first compound 0.0316 µM
[14] = second compound 0.316 µM, first compound 0.1 µM
[15] = second compound 0.316 µM, first compound 0.316 µM
[16] = second compound 0.316 µM, first compound 1 µM
[17] = second compound 0.316 µM, first compound 3.16 µM
[18] = second compound 0.316 µM, first compound 10 µM
[19] = second compound 1 µM, first compound 0.0316 µM
[20] = second compound 1 µM, first compound 0.1 µM
[21] = second compound 1 µM, first compound 0.316 µM
[22] = second compound 1 µM, first compound 1 µM
[23] = second compound 1 µM, first compound 3.16 µM
[24] = second compound 1 µM, first compound 10 µM
[25] = second compound 3.16 µM, first compound 0.0316 µM
[26] = second compound 3.16 µM, first compound 0.1 µM
[27] = second compound 3.16 µM, first compound 0.316 µM
[28] = second compound 3.16 µM, first compound 1 µM
[29] = second compound 3.16 µM, first compound 3.16 µM
[30] = second compound 3.16 µM, first compound 10 µM
[31] = second compound 10 µM, first compound 0.0316 µM
[32] = second compound 10 µM, first compound 0.1 µM
[33] = second compound 10 µM, first compound 0.316 µM
[34] = second compound 10 µM, first compound 1 µM
[35] = second compound 10 µM, first compound 3.16 µM
[36] = second compound 10 µM, first compound 10 µM
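Also: spheroids exposed to compounds for 7 days.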

O=c1[nH]cc(F)c(=O)[nH]1 + Nc1ccc(C#CCN(C(=O)Cc2ncc(C(F)(F)F)cc2C(F)(F)F)c2ccc(F)cc2)nn1
IC50 (second compound 0.0316 µM): > 10000 nM
IC50 (second compound 0.1 µM): > 10000 nM
IC50 (second compound 0.316 µM): > 10000 nM
IC50 (second compound 1 µM): > 10000 nM
IC50 (second compound 3.16 µM): > 10000 nM
IC50 (second compound 10 µM): > 10000 nM
viability, T/C [1]: 88.7%
viability, T/C [2]: 99.5%
viability, T/C [3]: 93.2%
viability, T/C [4]: 101%
viability, T/C [5]: 100%
viability, T/C [6]: 75.2%
viability, T/C [7]: 94%
viability, T/C [8]: 100%
viability, T/C [9]: 92.1%
viability, T/C [10]: 96%
viability, T/C [11]: 87%
viability, T/C [12]: 74.9%
viability, T/C [13]: 100%
viability, T/C [14]: 98.2%
viability, T/C [15]: 92.2%
viability, T/C [16]: 90.9%
viability, T/C [17]: 89.4%
viability, T/C [18]: 82.7%
viability, T/C [19]: 96.9%
viability, T/C [20]: 88.8%
viability, T/C [21]: 96%
viability, T/C [22]: 93.2%
viability, T/C [23]: 81.3%
viability, T/C [24]: 71.7%
viability, T/C [25]: 97.1%
viability, T/C [26]: 86.4%
viability, T/C [27]: 86.9%
viability, T/C [28]: 92.8%
viability, T/C [29]: 97.5%
viability, T/C [30]: 71.6%
viability, T/C [31]: 105%
viability, T/C [32]: 109%
viability, T/C [33]: 94%
viability, T/C [34]: 86.5%
viability, T/C [35]: 92.8%
viability, T/C [36]: 81.9%

CCc1cc2c(N3CCc4c(cc(Cn5ccnc5)cc4-c4cn(C)nc4C(F)(F)F)C3=O)cc(C)nc2c(OC)n1 + COC1C(OC(N)=O)C(O)C(Oc2ccc3c(O)c(NC(=O)c4ccc(O)c(CC=C(C)C)c4)c(=O)oc3c2C)OC1(C)C
IC50 (second compound 0.0316 µM): > 10000 nM
IC50 (second compound 0.1 µM): > 10000 nM
IC50 (second compound 0.316 µM): > 10000 nM
IC50 (second compound 1 µM): > 10000 nM
IC50 (second compound 3.16 µM): > 10000 nM
IC50 (second compound 10 µM): > 10000 nM
viability, T/C [1]: 87.4%
viability, T/C [2]: 79.7%
viability, T/C [3]: 75.3%
viability, T/C [4]: 68.9%
viability, T/C [5]: 84.7%
viability, T/C [6]: 66.2%
viability, T/C [7]: 89%
viability, T/C [8]: 78.6%
viability, T/C [9]: 77%
viability, T/C [10]: 77.1%
viability, T/C [11]: 69.7%
viability, T/C [12]: 70.4%
viability, T/C [13]: 88.7%
viability, T/C [14]: 71.8%
viability, T/C [15]: 90.4%
viability, T/C [16]: 75.4%
viability, T/C [17]: 79.2%
viability, T/C [18]: 67.6%
viability, T/C [19]: 80%
viability, T/C [20]: 73.5%
viability, T/C [21]: 79.9%
viability, T/C [22]: 82.5%
viability, T/C [23]: 74.5%
viability, T/C [24]: 71.9%
viability, T/C [25]: 80.3%
viability, T/C [26]: 72.9%
viability, T/C [27]: 82.6%
viability, T/C [28]: 76.7%
viability, T/C [29]: 80.1%
viability, T/C [30]: 75.2%
viability, T/C [31]: 78.4%
viability, T/C [32]: 80.9%
viability, T/C [33]: 77.2%
viability, T/C [34]: 75.1%
viability, T/C [35]: 75.9%
viability, T/C [36]: 72%

COc1cccc2c1C(=O)c1c(O)c3c(c(O)c1C2=O)CC(O)(C(=O)CO)CC3OC1CC(N)C(O)C(C)O1 (stereo not drawn) + Cc1cccc(N(C)C(=O)C2C(O)CCN2c2nc(C)cc(C(F)(F)F)c2C#N)c1
IC50 (second compound 0.0316 µM): 142 nM
IC50 (second compound 0.1 µM): 140 nM
IC50 (second compound 0.316 µM): 139 nM
IC50 (second compound 1 µM): 112 nM
IC50 (second compound 3.16 µM): 117 nM
IC50 (second compound 10 µM): 124 nM
viability, T/C [1]: 72.8%
viability, T/C [2]: 57.1%
viability, T/C [3]: 32.5%
viability, T/C [4]: 11.3%
viability, T/C [5]: 5.41%
viability, T/C [6]: 6.51%
viability, T/C [7]: 67.6%
viability, T/C [8]: 55.5%
viability, T/C [9]: 34.5%
viability, T/C [10]: 11.9%
viability, T/C [11]: 5.56%
viability, T/C [12]: 8.59%
viability, T/C [13]: 80.8%
viability, T/C [14]: 57.1%
viability, T/C [15]: 31%
viability, T/C [16]: 8.3%
viability, T/C [17]: 5.71%
viability, T/C [18]: 9.04%
viability, T/C [19]: 75.3%
viability, T/C [20]: 51%
viability, T/C [21]: 30.4%
viability, T/C [22]: 10.5%
viability, T/C [23]: 5.49%
viability, T/C [24]: 6.59%
viability, T/C [25]: 75.5%
viability, T/C [26]: 51.7%
viability, T/C [27]: 30.3%
viability, T/C [28]: 5.5%
viability, T/C [29]: 6.53%
viability, T/C [30]: 6.91%
viability, T/C [31]: 72.7%
viability, T/C [32]: 55.6%
viability, T/C [33]: 22.9%
viability, T/C [34]: 2.58%
viability, T/C [35]: 4.96%
viability, T/C [36]: 6.82%

CCc1c2c(nc3ccc(O)cc13)-c1cc3c(c(=O)n1C2)COC(=O)[C@]3(O)CC + Nc1ccc(C#CCN(C(=O)Cc2ncc(C(F)(F)F)cc2C(F)(F)F)c2ccc(F)cc2)nn1
IC50 (second compound 0.0316 µM): 91.9 nM
IC50 (second compound 0.1 µM): 55.9 nM
IC50 (second compound 0.316 µM): 45.8 nM
IC50 (second compound 1 µM): 81.8 nM
IC50 (second compound 3.16 µM): 59 nM
IC50 (second compound 10 µM): 120 nM
viability, T/C (second compound 0.0316 µM, first compound 0.00316 µM): 73.5%
viability, T/C (second compound 0.0316 µM, first compound 0.01 µM): 60.1%
viability, T/C [1]: 58%
viability, T/C [2]: 51.4%
viability, T/C [3]: 33.5%
viability, T/C [4]: 5.95%
viability, T/C (second compound 0.1 µM, first compound 0.00316 µM): 82.2%
viability, T/C (second compound 0.1 µM, first compound 0.01 µM): 63.5%
viability, T/C [7]: 52.3%
viability, T/C [8]: 48.1%
viability, T/C [9]: 33.2%
viability, T/C [10]: 6.65%
viability, T/C (second compound 0.316 µM, first compound 0.00316 µM): 83.1%
viability, T/C (second compound 0.316 µM, first compound 0.01 µM): 63.6%
viability, T/C [13]: 48.1%
viability, T/C [14]: 46.1%
viability, T/C [15]: 32.7%
viability, T/C [16]: 6.56%
viability, T/C (second compound 1 µM, first compound 0.00316 µM): 76.3%
viability, T/C (second compound 1 µM, first compound 0.01 µM): 63%
viability, T/C [19]: 49%
viability, T/C [20]: 51.4%
viability, T/C [21]: 37.7%
viability, T/C [22]: 5.34%
viability, T/C (second compound 3.16 µM, first compound 0.00316 µM): 78.8%
viability, T/C (second compound 3.16 µM, first compound 0.01 µM): 65.1%
viability, T/C [25]: 51.4%
viability, T/C [26]: 47.2%
viability, T/C [27]: 34.6%
viability, T/C [28]: 5.06%
viability, T/C (second compound 10 µM, first compound 0.00316 µM): 72.8%
viability, T/C (second compound 10 µM, first compound 0.01 µM): 58.6%
viability, T/C [31]: 53.6%
viability, T/C [32]: 55.1%
viability, T/C [33]: 39.3%
viability, T/C [34]: 5.13%
